Drawing on PubChem BioAssay (NCI), this text covers GI50 and TGI for 9 molecules.

Several values for one entry are separate records, joined by “and”; a condition that tells them apart may be missing. Equal values may be shown once.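 Cells were grown in 96-well plates and exposed to each compound for 48 hours at five concentrations; endpoints were interpolated linearly between bracketing concentrations, or set to the highest concentration if not reached. At the GI50, growth is halved. TGI marks complete inhibition of growth.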

Test systems include A498 renal; HT29 colon; LOX IMVI melanoma; NCI-H460 lung; NCI/ADR-RES ovarian; RXF 393 renal; UACC-62 melanoma; UO-31 renal.
What all share (assay): NCI-60 cell line screen, 48 h

For `CC[C@H](C)[C@H](NC(=O)NC(C)(C)C)C(=O)N(C)[C@H](C[C@@H](OC(C)=O)c1nc(C(=O)N[C@@H](Cc2ccccc2)C[C@H](C)C(=O)OC)cs1)C(C)C`, the GI50 is 0.154 µM in the assay with A498 renal; 0.324 µM with HT29 colon; 0.768 µM with LOX IMVI melanoma; 0.699 µM in the assay on NCI-H460 lung; 1.79 µM in the assay on NCI/ADR-RES ovarian; 0.43 µM in the assay with RXF 393 renal. In addition, the figures for the GI50 with UACC-62 melanoma and in the assay on UO-31 renal were 0.172 µM and 1.26 µM, respectively. Further, the TGI in the assay on A498 renal was 4.31 µM; in the assay on HT29 colon, more than 8.91 µM; in the assay on LOX IMVI melanoma, more than 25 µM; with NCI-H460 lung, more than 13.7 µM; in the assay with NCI/ADR-RES ovarian, 24.9 µM; in the assay on RXF 393 renal, more than 20.3 µM. For the same molecule, the TGI with UACC-62 melanoma and in the assay on UO-31 renal was more than 25 µM each time.
For the molecule `O=C(NO)c1ccc(Cn2c(=O)n(-c3ccccc3)c(=O)c3ccccc32)cc1`, the GI50 with A498 renal is 0.418 µM; with HT29 colon, 1.83 µM; in the assay with LOX IMVI melanoma it was 1.26 µM; with NCI-H460 lung it was 1.44 µM; with NCI/ADR-RES ovarian it was 2.67 µM; in the assay with RXF 393 renal, 1.11 µM. The GI50 with UACC-62 melanoma is 0.482 µM; with UO-31 renal, 1.77 µM. Further, the TGI in the assay on A498 renal is 2.09 µM; in the assay on HT29 colon it was 47.9 µM; in the assay with LOX IMVI melanoma, 2.62 µM; with NCI-H460 lung it was 9.19 µM; with NCI/ADR-RES ovarian it was 39.5 µM; in the assay on RXF 393 renal it was 2.66 µM. Also, the TGI in the assay with UACC-62 melanoma amounted to 2.16 µM; in the assay with UO-31 renal, 4.63 µM.
For the molecule `Cc1ccc2nc3c(n2c1)C(=O)C(=O)c1ccccc1-3`, the GI50 is 1.37 µM in the assay on A498 renal; 1.74 µM with HT29 colon; 0.132 µM with LOX IMVI melanoma; 0.173 µM in the assay with NCI-H460 lung; 0.348 µM in the assay with NCI/ADR-RES ovarian; 0.227 µM with RXF 393 renal. For the same molecule, the GI50 in the assay on UACC-62 melanoma is 0.152 µM; in the assay with UO-31 renal, 0.194 µM. Besides, the TGI in the assay on A498 renal was 2.71 µM; in the assay with LOX IMVI melanoma, 0.276 µM; in the assay on NCI-H460 lung it was 0.718 µM; in the assay on NCI/ADR-RES ovarian, 2.51 µM; in the assay with RXF 393 renal it was 10.2 µM; in the assay on UACC-62 melanoma, 0.324 µM. This molecule also displayed a TGI in the assay with UO-31 renal of 1 µM.
With `COc1ccc(C2=N[C@@H](c3ccc(Cl)cc3)[C@@H](c3ccc(Cl)cc3)N2C(=O)N2CCNC(=O)C2)c(OC(C)C)c1`, the GI50 is 12.6 µM and 6.1 µM and 9.23 µM in the assay with A498 renal; 14.9 µM and 14.4 µM and 14.2 µM in the assay with HT29 colon; 13.8 µM and 4.07 µM and 2.81 µM in the assay on LOX IMVI melanoma; 14.8 µM and 3.04 µM and 2.17 µM in the assay on NCI-H460 lung; 16.9 µM and 16.7 µM and 16.2 µM in the assay with NCI/ADR-RES ovarian; 12.3 µM and 12.7 µM and 13.9 µM in the assay on RXF 393 renal. In addition, the GI50 with UACC-62 melanoma is 11.3 µM and 2.76 µM and 1.38 µM; with UO-31 renal it was 5.92 µM and 3.77 µM and 2.63 µM. Also, the TGI with A498 renal is 25.6 µM and 21.9 µM and 24.1 µM; in the assay on HT29 colon, 31.4 µM and 28.2 µM and 29.1 µM; in the assay with LOX IMVI melanoma it was 27.4 µM and 19.3 µM and 18.3 µM; in the assay with NCI-H460 lung it was 29.9 µM and 16.3 µM and 14.8 µM; in the assay on NCI/ADR-RES ovarian, 35 µM and 37.8 µM and 37.1 µM; in the assay on RXF 393 renal, 25.4 µM and 25.9 µM and 27.8 µM. The TGI in the assay on UACC-62 melanoma is 25.3 µM and 19.2 µM and 16.6 µM; in the assay with UO-31 renal, 20.7 µM and 17.5 µM and 15.9 µM.
Regarding `OCCn1cc(-c2cnc3nnn(Cc4ccc5ncccc5c4)c3n2)cn1`, the GI50 in the assay on A498 renal is 34.3 µM; with HT29 colon it was more than 100 µM; in the assay on LOX IMVI melanoma, more than 100 µM; with NCI-H460 lung, more than 100 µM; in the assay on NCI/ADR-RES ovarian, more than 100 µM; in the assay on RXF 393 renal, more than 100 µM. Further, the GI50 with UACC-62 melanoma and with UO-31 renal was more than 100 µM throughout. Moreover, the TGI with A498 renal, in the assay on HT29 colon, with LOX IMVI melanoma, in the assay on NCI-H460 lung, with NCI/ADR-RES ovarian and in the assay with RXF 393 renal was more than 100 µM throughout. For the same molecule, the TGI with UACC-62 melanoma and with UO-31 renal was more than 100 µM each time.
With `CCOC(=O)Cn1c(-c2nonc2NC(=O)c2ccccc2F)nc2ccccc21`, the GI50 is 68 µM with A498 renal; 0.721 µM in the assay on HT29 colon; 0.309 µM in the assay on LOX IMVI melanoma; 0.579 µM with NCI-H460 lung; 4.74 µM with NCI/ADR-RES ovarian; 5.67 µM in the assay on RXF 393 renal. The GI50 is 5.86 µM in the assay with UACC-62 melanoma and 28.1 µM in the assay on UO-31 renal. In addition, the TGI is more than 100 µM with A498 renal; more than 100 µM with HT29 colon; more than 100 µM with LOX IMVI melanoma; more than 100 µM in the assay with NCI-H460 lung; more than 100 µM in the assay on NCI/ADR-RES ovarian; more than 62 µM with RXF 393 renal. Besides, the TGI with UACC-62 melanoma and in the assay with UO-31 renal was more than 100 µM throughout.
Consider `O=C(Nc1ccc(Nc2ccncc2)cc1)c1ccc(Nc2ccnc3ccc([N+](=O)[O-])cc23)cc1[N+](=O)[O-]`, for which the GI50 with A498 renal was 24.2 µM; in the assay on HT29 colon, 45.4 µM; with LOX IMVI melanoma, 4.82 µM; with NCI-H460 lung it was 9.96 µM; in the assay on NCI/ADR-RES ovarian, 12.8 µM; in the assay on RXF 393 renal, 24.9 µM. Moreover, the GI50 in the assay on UACC-62 melanoma was 11.1 µM; with UO-31 renal, 7.33 µM. Also, the TGI in the assay with A498 renal was more than 62.2 µM; with HT29 colon, more than 100 µM; in the assay on LOX IMVI melanoma, more than 51 µM; with NCI-H460 lung it was more than 100 µM; with NCI/ADR-RES ovarian, more than 100 µM; with RXF 393 renal, 42.5 µM. Besides, the TGI is 58.8 µM with UACC-62 melanoma and more than 64.1 µM in the assay on UO-31 renal.
On to `CC[C@H]1CN(C)[C@H]2Cc3c([nH]c4ccccc34)C(=O)C[C@H]1C2C(=O)OC` (stereo not given in full), for which the TGI in the assay on A498 renal, in the assay on HT29 colon, in the assay on LOX IMVI melanoma, with NCI-H460 lung, in the assay with NCI/ADR-RES ovarian and in the assay on RXF 393 renal was more than 100 µM throughout. In addition, the TGI in the assay with UACC-62 melanoma and in the assay with UO-31 renal was more than 100 µM in each case.
`CCOC(=O)c1ccccc1SC(C[N+](=O)[O-])c1ccccc1` (stereo not given): the GI50 in the assay with A498 renal is 3.63 µM; in the assay on HT29 colon, 2.55 µM; in the assay on LOX IMVI melanoma, 1.81 µM; with NCI-H460 lung, 18.6 µM; with NCI/ADR-RES ovarian, 22.5 µM; in the assay on RXF 393 renal, 1.64 µM. Besides, the GI50 in the assay with UACC-62 melanoma was 13.3 µM; in the assay with UO-31 renal it was 2.43 µM. Further, the TGI with A498 renal was found to be 16 µM; with HT29 colon, 5.72 µM; in the assay with LOX IMVI melanoma, 3.51 µM; in the assay with NCI-H460 lung it was 39.5 µM; with NCI/ADR-RES ovarian, 64.1 µM; with RXF 393 renal, 3.09 µM. In addition, the TGI in the assay on UACC-62 melanoma amounted to 27.1 µM; in the assay with UO-31 renal it was 7.22 µM.
